Test results from US20220347309A1, “PYRROLOBENZODIAZEPINE RESISTANCE” (ADC THERAPEUTICS SA, priority 2018, published 2022).

Legend:
[1] = system: NCI-N87 PBDr cells (SG3199 acquired resistant); assay: MTS in vitro cytotoxicity, 144 h continuous exposure; assay type: cell-based, human
Experimental: (§8) To generate a resistant population to either ADCT-502 or SG3199, human gastric cancer NCI-N87 cells (expressing HER2) were incubated with an approximate IC50 dose of the drug for 144 hours. The cells were then washed and returned to fresh medium until normal cell growth was recovered. This process was repeated until a measurable and stable loss in cytotoxic efficacy was established using the MTS assay.
(§9) To measure the in vitro cytotoxicity with the MTS assay, cells were incubated with a 10-fold dilution range of ADCT-502 or SG3199, and incubated with continuous exposure for 144 hours (at least three cell doubling times under normal cell culture conditions). After incubation the CellTiter 960 AQueous One Solution Cell Proliferation Assay (MTS) was used to measure growth inhibition, by adding 20 μl reagent to the cells and incubating for 3-4 hours, then reading the absorbance at 492 nm. Mean % growth of the ADC or PBD treated cells was calculated relative to an untreated control.
(§10) To measure the cross-resistance of the NCI-N87 ADCR cells to the SG3199 PBD warhead, and the PBDR cells to ADCT-502, the in vitro cytotoxicity assay was carried out as described above, treating the cells with the opposite drug molecule to the one with which they were generated.

[2] = system: Karpas ADCr cells; assay: Single dose 2-hour exposure cytotoxicity (MTS); assay type: cell-based, human; details: 130 pM ADCT-301 or 280 μM SG3199 (legend: pM) for 2 hours, then 96 hours
Experimental: (§1) To investigate growth inhibition under the same conditions under which DNA ICL formation was measured, Karpas-ADCR cells were treated with 130 pM ADCT-301, and Karpas-PBDR cells treated with 280 pM SG3199 for 2 hours, then washed and incubated for 96 hours under normal cell culture conditions. The MTS assay and calculation of % growth compared to the untreated control was carried out as previously described.
(§2) To investigate whether the cross-resistance in ICL formation observed in the Karpas resistant cell lines also correlates with growth inhibition at this dose, ADCR cells were treated with 280 μM SG3199, and PBDR cells treated with 130 μM ADCT-301 for 2 hours, then washed and incubated for 96 hours under normal cell culture conditions. The MTS assay and calculation of % growth compared to the untreated control was carried out as previously described. The results are shown in FIG. 22 for the ADCR line and FIG. 23 for the PBDR line.

[3] = system: Karpas PBDr cells; assay: Single dose 2-hour exposure cytotoxicity (MTS); assay type: cell-based, human; details: 130 μM ADCT-301 (legend: pM) or 280 pM SG3199 for 2 hours, then 96 hours
Experimental: as §1, §2

[4] = system: human tumor cell lines expressing MDR1; details: cited from earlier work
[5] = system: NCI-N87 wt cells; assay: Single dose 2-hour exposure cytotoxicity (MTS); assay type: cell-based, human; details: single dose for 2 hours, then 144 hours, vs untreated control
[6] = system: NCI-N87 PBDr cells; assay: Single dose 2-hour exposure cytotoxicity (MTS); assay type: cell-based, human; details: 1.7 nM ADCT-502 or 1.7 nM SG3199 for 2 hours, then 144 hours
Experimental: as §1, with “NCI-N87-ADCR” for “Karpas-ADCR”, “1 nM ADCT-502,” for “130 pM ADCT-301,”, “PBDR” for “Karpas-PBDR”, “1.7 nM” for “280 pM”, “144” for “96”
as §2, with “NCI-N87” for “Karpas”, “1 nM” for “280 μM”, “1.7 nM ADCT-502” for “130 μM ADCT-301”, “144” for “96”, “24” for “22”, “25” for “23”

[7] = system: NCI-N87 ADCr cells; assay: Single dose 2-hour exposure cytotoxicity (MTS); assay type: cell-based, human; details: 1 nM ADCT-502 or 1 nM SG3199 for 2 hours, then 144 hours
Experimental: as §1, with “NCI-N87-ADCR” for “Karpas-ADCR”, “1 nM ADCT-502,” for “130 pM ADCT-301,”, “PBDR” for “Karpas-PBDR”, “1.7 nM” for “280 pM”, “144” for “96”
as §2, with “NCI-N87” for “Karpas”, “1 nM” for “280 μM”, “1.7 nM ADCT-502” for “130 μM ADCT-301”, “144” for “96”, “24” for “22”, “25” for “23”

[8] = system: NCI-N87 PBDr cells; assay: DNA interstrand cross-linking, comet assay; assay type: cell-based, human; details: 1 nM ADCT-502 or 1.7 nM SG3199 for 2 hours, then 24 hours
Experimental: (§3) The formation of inter-strand cross-links (ICLs) by either ADCT-502 or SG3199 was measured using the modification of the single cell gel electrophoresis (comet) assay. Cells were treated with 1 nM ADCT-502 or 1.7 nM SG3199 for 2 hours, then washed and incubated for 24 hours under normal cell culture conditions. All cells were irradiated with 18 Gy (5 Gy/min for 3.6 min). ICL formation was quantitated by measuring Olive tail moment (OTM) using the Komet 4 software, and the percentage reduction in OTM compared to an untreated irradiated control.
(§4) The results are shown in FIG. 20 for the ADCR line and FIG. 21 for the PBDR line.

[9] = system: NCI-N87 ADCr cells; assay: DNA interstrand cross-linking, comet assay; assay type: cell-based, human; details: 1 nM ADCT-502 or 1.7 nM SG3199 for 2 hours, then 24 hours
Experimental: as §3, §4

[10] = system: NCI-N87 wt cells; assay: DNA interstrand cross-linking, comet assay; assay type: cell-based, human; details: 1 nM ADCT-502 or 1.7 nM SG3199 for 2 hours, then 24 hours
Experimental: as §3, §4

[11] = system: Karpas ADCr cells; assay: DNA interstrand cross-linking, comet assay; assay type: cell-based, human; details: 130 μM ADCT-301 or 280 μM SG3199 (figure legends: pM) for 2 hours, then 24 hours
Experimental: (§5) The formation of inter-strand cross-links (ICLs) by either ADCT-301 or SG3199 was measured using a modification of the single cell gel electrophoresis (comet) assay (Spanswick V J, Hartley J M, Hartley J A. Measurement of DNA interstrand crosslinking in individual cells using the Single Cell Gel Electrophoresis (Comet) assay. Methods Mol Biol. 613, 267-82 (2010)). Cells were treated with […] ADCT-301 or […] SG3199 for 2 hours, then washed and incubated for 24 hours under normal cell culture conditions. All cells were irradiated with 18 Gy (5 Gy/min for 3.6 min). Comet slides were reviewed under a 20× objective on an epifluorescence microscope equipped with: Hg arc lamp; 580 nm dichroic mirror; and 535 nm excitation and 645 nm emission filters suitable for visualising of propidium iodide staining with a minimum of 50 Comet images acquired per treatment condition. The Olive Tail Moment (OTM) was determined as the product of the tail length and the fraction of total DNA in the tail as recorded by Komet 6 software (Andor Technology, Belfast, UK) and the percentage reduction in OTM calculated according to the formula:
(§6) % decrease in tail moment=[1−(TMdi−TMcu)/(TMci−TMcu)]*100 • [TMdi=Tail Moment drug irradiated; TMcu=TM control un-irradiated; TMci=TM control irradiated]
(§7) The results are shown in FIG. 18 for the ADCR line and FIG. 19 for the PBDR line.

[12] = system: Karpas PBDr cells; assay: DNA interstrand cross-linking, comet assay; assay type: cell-based, human; details: 130 μM ADCT-301 or 280 μM SG3199 (figure legends: pM) for 2 hours, then 24 hours
Experimental: as §5, §6, §7

[13] = system: NCI-N87 ADCr cells (ADCT-502 acquired resistant); assay: MTS in vitro cytotoxicity, 144 h continuous exposure; assay type: cell-based, human
Experimental: as §8, §9, §10

[14] = system: NCI-N87 wt cells; assay: as above; assay type: cell-based, human; details: NCI-N87 wt, 144 h continuous exposure, mean; read-out: IC50
Experimental: as §8, §9, §10

COc1cc2c(cc1OCCCCCOc1cc3c(cc1OC)C(=O)N1C=C(C)C[C@H]1C=N3)N=C[C@@H]1CC(C)=CN1C2=O [SG3199]
fold resistance compared to wildtype ([1]; NCI-N87 PBDr vs NCI-N87 wt IC50): 3.7 fold
IC50 ([1]; NCI-N87 PBDr, 144 h continuous exposure, mean, read-out: IC50): 0.0586 nM
2 hr mean % growth [2]: 86.3%
2 hr mean % growth [3]: 78.5%
susceptibility to multidrug resistance mechanisms [4]: susceptible to multidrug resistance mechanisms
2 hr mean % growth [5]: 29.0%
2 hr mean % growth [6]: 76.6%
2 hr mean % growth [7]: 57.2%
% red. OTM [8]: 30.7%
% red. OTM [9]: 24%
% red. OTM [10]: 51.0%
% red. OTM [11]: 7.2%
% red. OTM [12]: 25.7%
fold resistance compared to wildtype ([13]; NCI-N87 ADCr vs NCI-N87 wt IC50): 3.8 fold
IC50 ([13]; NCI-N87 ADCr, 144 h continuous exposure, mean, read-out: IC50): 0.0604 nM
IC50 [14]: 0.0159 nM
